We go through 5 molecules from patent US9427458B2, “Methods for inhibiting cancer cell proliferation” (Consejo Nacional de Investigaciones Cientificas y Tecnicas, …, priority 2010, dated 2016).

“Also recorded” adds a separate entry of the source.

In series [1] the test system is Stat3. Nature of the series: Stat3 phosphorylation and nuclear translocation in C4HD cells. In kind it is cell-based, mouse. The protocol:
(§1) Lysates were prepared from cells subjected to the different treatments and proteins were subjected to SDS-PAGE as previously described (21). Membranes were immunoblotted with the antibodies detailed in each experiment. When phospho(p)-protein antibodies were used, filters were reprobed with total protein antibodies. Signal intensities of pErbB-2, pStat3, pSrc, pPR, pJak1, and pJak2 bands were analyzed by densitometry and normalized to total protein bands. Similarly, signal intensities of PR, cyclin D1, Stat3, and ErbB-2 bands were normalized to actin or β tubulin bands. […] The NEPER Nuclear and Cytoplasmic Extraction Reagents technique (Pierce Biotechnology) was performed as per manufacturer's instructions. Nuclear association between ErbB-2 and Stat3 was studied by performing coimmunoprecipitation experiments using 200 μg of nuclear protein lysates as described (22).
siRNAs targeting ErbB-2, Stat3, and Pr were synthesized by Dharmacon, Inc (Lafayatte, Colo.) (ErbB-2siRNA: 5′GAUGGUGCUUACUCAUUGA3′ (SEQ ID NO:8), designed to specifically knockdown mouse ErbB2 but not human ErbB-2; Stat3siRNA: 5′[…]3′ (SEQ ID NO:9) targets mouse Stat3; and 5′[…]3′ (SEQ ID NO:10) targets human Stat3; PRsiRNA: 5′[…]3′(SEQ ID NO:11)). […] Transfection of siRNAs duplexes was performed by using the DharmaFECT transfection reagent following the manufacturer's direction for 3 days. For reconstitution experiments cotransfection of 25 nM ErbB-2 siRNA with 2 μg expression vectors was performed using DharmaFECT Duo transfection reagent (Dharmacon).
(§2) Cells grown on glass coverslips were fixed and permeabilized in ice-cold methanol and were then blocked with PBS 1% BSA. ErbB-2 was localized using either a rabbit polyclonal (C-18) or a mouse monoclonal (F-11) ErbB-2 antibody (Santa Cruz Biotechnology) and Stat3 was detected using a mouse monoclonal antibody (124H6, Cell Signaling), followed by incubation with a goat anti-rabbit IgG-Alexa 488 (Molecular Probes, Eugene, Oreg.) secondary antibody for ErbB-2 (C-18) and with a rhodamine conjugated goat anti-mouse secondary antibody (Jackson ImmunoResearch Laboratories, West Grove, Pa.) for both ErbB2 (F-11) and Stat3. Negative controls were carried out using PBS instead of primary antibodies, or 5× competitive peptide (Santa Cruz Biotechnology) when ErbB-2 (C-18) was used. When cells were transfected with hErbB-2ΔNLS, green fluorescent protein from this expression vector was visualized by direct fluorescence imaging. […] FIGS. 2A, 3B and C, illustrate a few cells representative of the ones examined. Cells were analyzed using a Nikon Eclipse E800 confocal laser microscopy system (22).

For a further series, the system named is cyclin D1. Nature of the series: Cyclin D1 protein levels by Western blot in C4HD cells. In kind it is cell-based, mouse. Particulars: C4HD cells preincubated or transfected, then MPA for 48 h. Here is the method: (§3) Primary cultures of epithelial cells from C4HD tumors were performed as described (2). T47D cells were obtained from American Type Culture Collection and T47D-Y cells were a generous gift from Dr. K. Horwitz (Denver, Colo.). To evaluate the effects of the pharmacological inhibitors on MPA-induced proteins phosphorylation or cyclin D1 expression, cells were preincubated for 90 min with RU486, PP2, Tyrphostin AG825 or Jak inhibitor I before addition of MPA. Cell proliferation was evaluated by [3H]-thymidine incorporation assay and cell cycle distribution was analyzed by flow cytometry, as described (22).
as §1, with “Nuclear association between ErbB-2 and Stat3 was studied by performing coimmunoprecipitation experiments using 200 μg of nuclear protein lysates as described (22).” left out

For series [2], the system named is ErbB-2. Nature of the series: ErbB-2 tyrosine phosphorylation by Western blot in C4HD cells. Format: cell-based, mouse. The settings on record: C4HD cells preincubated with inhibitor or transfected with siRNA before MPA. The protocol:
as §3
as §1, with “Nuclear association between ErbB-2 and Stat3 was studied by performing coimmunoprecipitation experiments using 200 μg of nuclear protein lysates as described (22).” left out
(Immunoblotting shows a protein as a band on a membrane.)

In series [3] the test system is ErbB-2. Nature of the series: ErbB-2 cellular localization (subcellular fractionation/immunoblot, confocal microscopy) in T47D cells. Format: cell-based, human. The settings on record: T47D cells pretreated with inhibitor before MPA. The protocol: (§4) Lysates were prepared from cells subjected to the different treatments and proteins were subjected to SDS-PAGE as previously described (21). Membranes were immunoblotted with the antibodies detailed in each experiment. When phospho(p)-protein antibodies were used, filters were reprobed with total protein antibodies. Signal intensities of pErbB-2, pStat3, pSrc, pPR, pJak1, and pJak2 bands were analyzed by densitometry and normalized to total protein bands. Similarly, signal intensities of PR, cyclin D1, Stat3, and ErbB-2 bands were normalized to actin or β tubulin bands. […]
(§5) Cells grown on glass coverslips were fixed and permeabilized in ice-cold methanol and were then blocked with PBS 1% BSA. ErbB-2 was localized using either a rabbit polyclonal (C-18) or a mouse monoclonal (F-11) ErbB-2 antibody (Santa Cruz Biotechnology) and Stat3 was detected using a mouse monoclonal antibody (124H6, Cell Signaling), followed by incubation with a goat anti-rabbit IgG-Alexa 488 (Molecular Probes, Eugene, Oreg.) secondary antibody for ErbB-2 (C-18) and with a rhodamine conjugated goat anti-mouse secondary antibody (Jackson ImmunoResearch Laboratories, West Grove, Pa.) for both ErbB2 (F-11) and Stat3. […] When cells were transfected with hErbB-2ΔNLS, green fluorescent protein from this expression vector was visualized by direct fluorescence imaging. […]

Series [4] relates to ErbB-2. Nature of the series: ErbB-2 cellular localization (subcellular fractionation/immunoblot, confocal microscopy) in C4HD cells. In kind it is cell-based, mouse. The settings on record: C4HD cells pretreated with inhibitor before MPA. The protocol:
as §4, §5

Series [5] concerns Stat3. Nature of the series: Stat3 phosphorylation and nuclear translocation in T47D cells. Format: cell-based, human. The settings on record: T47D cells pretreated with inhibitor before MPA. The protocol:
as §1, §2

For series [6], the system named is ErbB-2. Nature of the series: ErbB-2 tyrosine phosphorylation by Western blot in T47D cells. In kind it is cell-based, human. Particulars: T47D cells preincubated with inhibitor before MPA. The protocol: as §3, §1
Series [7] concerns cyclin D1 promoter. Nature of the series: Human cyclin D1 promoter luciferase reporter in T47D cells. Format: cell-based. Particulars: pretreatment or cotransfection, MPA 24 h. The text has this: (§6) The luciferase reporter plasmid downstream the cyclin D1 human promoter region (−1745 cyclin D1-luc), and constructs truncated at positions −963, −261, −141, were kindly provided by Dr. R. Pestell (Northwestern University Medical School, Chicago, Ill.). These constructs were generated by truncation of the 1745-bp length promoter in order to sequentially exclude 5′ regions of the promoter. The −963 cyclin D1-luc construct excludes one GAS site (−984), the −261 cyclin D1-luc excludes three GAS sites (−984, −568 and −475) and the −141 cyclin D1-luc excludes four GAS sites (−984, −568, −475 and −239). The empty vector pA3 Luc was also provided by Dr. R. Pestell. The luciferase reporter plasmid containing four copies of the m67 high-affinity binding site (p4×m67-tk-luc) and the pTATA-tk-Luc reporter lacking the m67 insertion were a gift from Dr J. Darnell (The Rockefeller University, New York, N.Y.). The Renilla luciferase expression plasmid RLCMV was obtained from Promega (Madison, Wis.). […] Triplicate samples were analyzed for each datum point. Differences between experimental groups were analyzed by ANOVA followed by Tukey test between groups.
(A reporter such as luciferase makes a cellular process visible.)

Series [8] concerns cyclin D1 promoter. Nature of the series: Human cyclin D1 promoter luciferase reporter in C4HD cells. In kind it is cell-based, mouse. Particulars: for MPA-induced cyclin D1 promoter activation: pretreatment or cotransfection, MPA 24 h. The source says: The luciferase reporter plasmid downstream the cyclin D1 human promoter region (−1745 cyclin D1-luc), and constructs truncated at positions −963, −261, −141, were kindly provided by Dr. R. Pestell (Northwestern University Medical School, Chicago, Ill.). These constructs were generated by truncation of the 1745-bp length promoter in order to sequentially exclude 5′ regions of the promoter. The −963 cyclin D1-luc construct excludes one GAS site (−984), the −261 cyclin D1-luc excludes three GAS sites (−984, −568 and −475) and the −141 cyclin D1-luc excludes four GAS sites (−984, −568, −475 and −239). The empty vector pA3 Luc was also provided by Dr. R. Pestell. The luciferase reporter plasmid containing four copies of the m67 high-affinity binding site (p4×m67-tk-luc) and the pTATA-tk-Luc reporter lacking the m67 insertion were a gift from Dr J. Darnell (The Rockefeller University, New York, N.Y.). The Renilla luciferase expression plasmid RLCMV was obtained from Promega (Madison, Wis.). Dominant negative Stat3 expression vector, Stat3Y705-F, which carries a tyrosine to phenylalanine substitution at codon 705 that reduces phosphorylation on tyrosine of the wild-type Stat3 protein, therefore inhibiting both dimerization and DNA binding of Stat3 (6,7,16) was kindly provided by Dr J. Darnell (New York, USA). The empty pcDNA3.1 vector was also a gift of Dr J. Darnell. Human wild-type ErbB-2 expression vector (hErbB-2WT) as well as the empty pMe18SM vector were a gift from by Dr. T. Yamamoto (University of Tokyo, Japan) (1). The GFP-tagged human ErbB-2 mutant which lacks the putative nuclear localization signal sequence (aa 676-KRRQQKIRKYTMRR-689) (SEQ ID NO:3), resulting in the sequence of KLM at the deletion junction (hErbB-2ΔNLS), was generously provided by Dr. M. C. Hung (The University of Texas M.D. Anderson Cancer Center, Houston, Tex.) (Giri et al., 2005). The empty pEGFP-N1 vector was obtained from BD Biosciences Clontech (Palo Alto, Calif.). The plasmid encoding the human wild-type hPR-B was kindly provided by Dr. K. Horwitz. In experiments assessing MPA capacity to induce the transcriptional activation of Stat3, C4HD and T47D cells were transiently transfected for 48 h with 1 μg of −1745 cyclin D1-luc reporter plasmid or the truncated −963, −261 and −141 constructs, or with 1 μg p4×m67-tk-luc and 10 ng of RL-CMV used to correct variations in transfection efficiency. As control, cells were transfected with 1 μg of either the pA3 Luc or pTATA-tk-Luc reporters. Cells were cotransfected with 2 μg of Stat3Y705-F when indicated. Total amount of transfected DNA was standardized by adding the empty pcDNA3.1 vector. […] Triplicate samples were analyzed for each datum point. Differences between experimental groups were analyzed by ANOVA followed by Tukey test between groups.

The subject of series [9] is Stat3. Nature of the series: m67 Stat3 binding site luciferase reporter in T47D cells. Format: cell-based, human. Particulars: cotransfection.
Text: as §6

Series [10] concerns Stat3. Briefly: m67 Stat3 binding site luciferase reporter in C4HD cells. The settings on record: cotransfection. Format: cell-based, mouse.
Text: as §6

For “5′GAUGGUGCUUACUCAUUGA3′ (other strand missing, further chemistry not given here) [ErbB-2 siRNAs, siRNA designed to specifically knockdown mouse ErbB2 but not human ErbB-2]”, the “MPA-induced Stat3 phosphorylation” value with Stat3 [1] (C4HD cells transfected with siRNAs to knock down mouse ErbB-2) was “inhibited”.

“5′GGUCAAAUUUCCUGAGUUGUU3′ (other strand missing, further chemistry not given here) [Stat3 siRNAs, siRNA that targets mouse Stat3]”: in the series on cyclin D1, the “MPA-induced cyclin D1 protein levels” value is on record as “abrogated”.

Turning to `COc1cc(/C=C(\C#N)C(N)=O)cc(CSc2nc3ccccc3s2)c1O` [AG825], the “MPA-induced ErbB-2 phosphorylation” value with ErbB-2 [2] and with ErbB-2 [6] was “prevented” throughout. The “MPA-induced ErbB-2 nuclear translocation” value with ErbB-2 [3] and in the series on ErbB-2 [4] was “abrogated; also recorded: significantly inhibited” each time. The “MPA-induced Stat3 nuclear migration” value in the series with Stat3 [5] and in the series with Stat3 [1] (C4HD cells pretreated with inhibitor before MPA) was “absolutely prevented” in each case.

On to “Stat3Y705-F: Dominant negative Stat3 expression vector, tyrosine to phenylalanine substitution at codon 705”, for which the “MPA-induced cyclin D1 promoter activation” value in the series on cyclin D1 promoter [7] and in the series with cyclin D1 promoter [8] was “absolutely inhibited” each time.

Turning to “hErbB-2WT: Human wild-type ErbB-2 expression vector”, the “MPA-induced Stat3 transcriptional activation (m67 reporter)” value in the series with Stat3 [9] and in the series on Stat3 [10] was “significantly enhanced” in each case. Also, the “Stat3 Tyr705 phosphorylation upon MPA stimulation” value with Stat3 [1] (Transfected C4HD cells versus wild-type C4HD cells also stimulated with MPA) is given as “higher levels”. Also, in the series on cyclin D1 promoter [8] (absence of MPA), the “basal levels of Stat3 transcriptional activity” value is “did not modulate”. For the same molecule, in the series with cyclin D1 promoter [8], the “MPA-induced cyclin D1 promoter activation” value is “significantly enhanced”.
